Experimental data: article PMC12667553, “TWF2 Drives Tumor Progression and Sunitinib Resistance in Renal Cell Carcinoma through Hippo Signaling Suppression” (Advanced Science, 2025)
Numbering of substitutions follows the chain as printed.

What was measured:
[1] = target: T1, TWF2 (Twinfilin actin-binding protein; Flag-TWF2) (Homo sapiens, UniProt Q6IBS0); test: isothermal titration calorimetry; settings: 25 °C; 20 mM HEPES pH 7.5, 300 mM NaCl, 2 mM MgCl2; 1 mM Sal E titrated into 100 µM TWF2; single-site model
T1 construct: Flag-tagged TWF2 overexpressed in 293F cells, purified with anti-Flag magnetic beads
T1 sequence (Q6IBS0 2-349): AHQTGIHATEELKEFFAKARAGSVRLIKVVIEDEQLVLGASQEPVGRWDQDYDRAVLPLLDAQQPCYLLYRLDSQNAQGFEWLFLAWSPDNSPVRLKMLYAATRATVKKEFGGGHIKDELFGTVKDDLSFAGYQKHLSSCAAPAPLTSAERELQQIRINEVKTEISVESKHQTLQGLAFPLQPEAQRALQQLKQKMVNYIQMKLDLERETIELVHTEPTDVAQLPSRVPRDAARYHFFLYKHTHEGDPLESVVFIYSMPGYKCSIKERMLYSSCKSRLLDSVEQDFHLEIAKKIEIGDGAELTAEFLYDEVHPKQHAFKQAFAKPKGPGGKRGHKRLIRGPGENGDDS
Source text: isothermal titration calorimetry on TWF2 (Twinfilin actin-binding protein; Flag-TWF2) | direct binding affinity between Sal E and purified TWF2, with a dissociation constant (K d)

[2] = target: T2, TWF2 (Twinfilin actin-binding protein; Flag-TWF2) (Homo sapiens, UniProt Q6IBS0, M99A); test: isothermal titration calorimetry; settings: 25 °C; 20 mM HEPES pH 7.5, 300 mM NaCl, 2 mM MgCl2; 1 mM Sal E titrated into 100 µM TWF2; single-site model
T2 construct: Flag-tagged TWF2 overexpressed in 293F cells, purified with anti-Flag magnetic beads
T2 sequence (Q6IBS0 2-349 M99A): T1 sequence (Q6IBS0 2-349) with M98A

With `O=C(/C=C/c1ccc(O)c(O)c1/C(=C\c1ccc(O)c(O)c1)C(=O)O[C@H](Cc1ccc(O)c(O)c1)C(=O)O)O[C@H](Cc1ccc(O)c(O)c1)C(=O)O` [Salvianolic acid E] the Kd [1] was 16.7 µM and the “loss of Sal E binding” value [2] was “showing loss of Sal E binding upon M99 mutation in TWF2”.
